Source: ChEMBL document CHEMBL3739326, “ent-Kaurene Glycosides from Ageratina cylindrica” (J Nat Prod, 2015)
pIC50: −log10 of the molar value.

Experiments:
Giardia intestinalis = assay: Antiprotozoal activity against Giardia lamblia IMSS:1090:1; assay type: functional, organism-based; details: Giardia duodenalis
Entamoeba histolytica = assay: Antiprotozoal activity against Entamoeba histolytica HM-1:IMSS; assay type: functional, organism-based

| pIC50 (Giardia intestinalis) | pIC50 (Entamoeba histolytica) | Compound |
| --- | --- | --- |
| 4.38 | 4.36 | C=C1[C@@H]2CC[C@H]3[C@]4(C)CCC[C@@](C)(C(=O)O[C@@H]5O[C@H](CO)[C@@H](O)[C@H](O)[C@H]5O)[C@H]4CC[C@]3(C2)[C@@H]1O[C@H]1O[C@@H](C)[C@@H](O)[C@@H](O)[C@@H]1O |
| 4.01 | 4.13 | C=C1[C@@H]2CC[C@H]3[C@]4(C)CCC[C@@](C)(C(=O)O)[C@H]4CC[C@]3(C2)[C@@H]1O[C@H]1O[C@@H](C)[C@@H](O)[C@@H](O)[C@@H]1O |
| 4.16 | 4.31 | C=C1[C@@H]2CC[C@H]3[C@]4(C)CCC[C@@](C)(C(=O)O[C@@H]5O[C@H](CO)[C@@H](O)[C@H](O)[C@H]5O)[C@H]4CC[C@]3(C2)[C@@H]1O[C@H]1O[C@@H](C)[C@@H](OC(C)=O)[C@@H](O)[C@@H]1O |
| 4.31 | 4.28 | C=C1[C@@H]2CC[C@H]3[C@]4(C)CCC[C@@](C)(C(=O)O[C@@H]5O[C@H](CO)[C@@H](O)[C@H](O)[C@H]5O)[C@H]4CC[C@]3(C2)[C@@H]1O[C@H]1O[C@@H](C)[C@@H](O)[C@@H](OC(C)=O)[C@@H]1O |
